Experimental data taken from publication PMC10888103, “Enhanced High-Fructose Corn Syrup Production: Immobilizing Serratia marcescens Glucose Isomerase on MOF (Co)-525 Reduces Co^2+ Dependency in Glucose Isomerization to Fructose” (Foods, 2024).

Test system: T1, Serratia marcescens glucose isomerase (SmGI)
T1 construct: gene xylA; native, from S. marcescens lysate; 70 °C heat step and 10 kD ultrafiltration only (no chromatography); main SDS-PAGE band about 60 kD
Assay: fructose formation by fructose assay kit, Lineweaver-Burk; heat-treated, ultrafiltered extract
Type: biochemical
Conditions: free enzyme, no added Co2+; 60 °C, 1 h; glucose 2.5-400 mM; pH of kinetic assay not stated
Description: fructose formation by fructose assay kit, Lineweaver-Burk; heat-treated, ultrafiltered extract on Serratia marcescens glucose isomerase (SmGI)

`OC[C@H]1OC(O)[C@H](O)[C@@H](O)[C@@H]1O` (stereo partly shown) [glucose] gave a Km of 44.3 ± 3.1 mM.
